Results published in patent US6887853B2, “Use of geldanamycin and related compounds for treatment of fibrogenic disorders” (The Trustees of Boston University, priority 2000, dated 2005).

Assays:
[1] = system: endogenous collagen transcript in mouse 3T3 cells; experiment: Northern analysis of endogenous α1(I) collagen message, NIH 3T3 fibroblasts; format: cell-based; conditions: TGF-β alone, 24 hour
Procedure: FIGS. 7A-7C show fibroblasts subjected to 24-hour treatments with geldanamycin, TGF or both. After 24 hours, total RNA was harvested and subjected to northern analysis using an α1(I) collagen probe. (A) Northern analysis using NIH 3T3 fibroblasts. (B) Northern analysis using primary healthy human dermal fibroblasts. (C) Methylene blue staining of the filter in (B). Numbers represent relative intensities of the lower collagen band after normalizing bands to GAPDH band intensity; The clone corresponding to Hsp90-α was purchased as an EST from Genome Systems. […] Sequencing was performed at the Boston University DNA/Protein Sequencing Core. Northern analysis of Hsp90 to total RNA from scleroderma and healthy fibroblasts was performed as previously described (10). Geldanamycin was a generous gift of the National Cancer Institute. Geldanamycin was dissolved in dimethylsulfoxide (DMSO) and used at a final concentration of 2 μM except where indicated otherwise. DMSO without geldanamycin was added as the carrier control for all experiments using geldanamycin. The chaperone function of Hsp90 is dependent on the hydrolysis of ATP (44). […] Geldanamycin was examined to determine whether its inhibition of Hsp90 affected TGF-β activation of collagen transcription in mouse 3T3 and human dermal fibroblasts. Endogenous collagen message levels were used as a measure of TGF-β signal transduction. […]

[2] = system: Smad DNA-binding activity; experiment: Electrophoretic mobility shift assay, Smad binding element (SBE), 3T3 nuclear extracts; format: cell-based, mouse; conditions: 15 minute TGF-β treatment alone
Procedure: (A) Cells were harvested and subjecting to electrophoretic mobility shift analysis using a Smad binding element (SBE). […] Where indicated, extracts were prepared with 100-fold higher levels of cold competitor probe. (B) Cells were subjected to 24 hour treatments with geldanamycin at various concentrations and extracts prepared and bound to control Oct-1-binding duplex oligos to monitor non-specific effects of geldanamycin.
Protein concentrations of extracts were determined using the BCA reagent (Pierce). […] The probes were end-labeled using γ-^32P-ATP and T4 polynucleotide kinase. Electrophoretic mobility shift assays (EMSA) were performed using 5 μg nuclear extract, 1 μl poly dI/dC (1 mg/ml), 0.1 ng of labeled probe (in 1 μl), and buffer G to achieve a final volume of 10 μl. Buffer G consists of 20 mM Hepes (pH 7.6), 100 mM KCl, 0.2 mM EDTA and 20% glycerol. Extracts and oligo were incubated 15 minutes at room temperature before adding loading buffer and running on a non-denaturing gel.
Electrophoretic mobility shift assays were performed to examine whether geldanamycin reduced the level of Smad DNA-binding activity in nuclear extracts. As before, cells were also subjected to TGF-β or TGF-β and geldanamycin together. […]

PN1 promoter = experiment: Protease nexin 1 (PN1) promoter luciferase reporter in transfected NIH 3T3 cells; format: cell-based, mouse; conditions: NIH 3T3, TGF-β alone, 24 hour
Procedure: (§1) The latter contains a 4.5 kb fragment of the PN1 promoter driving the luciferase gene. Cells were incubated for 24 hours after transfection, washed 3 times with PBS and then subjected to a 24 hour treatment with geldanamycin, TGF or both, as indicated. Cells were then harvested and luciferase activities determined; Transient transfections were performed using lipofectamine (Gibco BRL) as follows: 10 μg (total) of indicated plasmid DNA was mixed with 30 μl of lipofectamine and 500 μl of serum-free DMEM (Gibco). This mixture was incubated at room temperature for 20 minutes. Ten cm dishes of sub-confluent 3T3 fibroblasts were rinsed with PBS, and 5 ml of serum free DMEM added to each dish. The DNA/lipofectamine mixture was added to each dish and incubated in the 37° CO2 incubator for 4 hours. Ten ml of DMEM with 15% serum was added and plates were incubated overnight. Medium was replaced with 10% serum at 24 hours and extracts of cells were harvested at 48 hours. Cell extracts were obtained using Passive Lysis Buffer (Promega) and assays were performed according to the Promega protocol for pGL3 luciferase vectors. Protein concentrations of all extracts were determined and each luciferase reading is normalized for protein concentration. The 4.7 kb human MMP1 promoter driving luciferase was a gift of Constance Brinckerhoff (Dartmouth Medical School) (36). […]

[3] = system: TGF-β-sensitive promoter in the 3TPlux construct; experiment: TGF-β-sensitive 3TPlux luciferase reporter in transfected NIH 3T3 cells; format: cell-based, mouse; conditions: NIH 3T3, TGF-β by itself, 24 hour
Procedure: as §1

TGF-β was tested, and the “increase of endogenous collagen transcript level” value ([1]; NIH 3T3, absence of serum) was “approximately 6 fold”, the “increase of endogenous collagen transcript level” value ([1]; NIH 3T3, presence of serum) was 2 fold and the “nuclear Smad after TGF-β treatment” value [2] was “modest increase”. For the same substance, the “effect of TGF-β on the expression of the PN1 promoter” value (PN1 promoter) was “little effect” and the “induction of the activity of the 3TPlux promoter” value [3] was 3.5 fold.
